In patent EP4755888A1 (ILAb Co., Ltd., priority 2023, dated 2025):
pIC50: −log10 of the molar value.

Target: PD-1/PD-L1 (Homo sapiens, UniProt Q9NZQ7)
Assay: TR-FRET PD-1/PD-L1 binding inhibition at the molecular level (free proteins)
Conditions: Tag1-PD-L1 and Tag2-PD-1 proteins, twelve concentrations from 200 nM, 2 hours at room temperature, read-out: FRET assay (IC50)
Outline: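 HTRF read-out at 665/620 nm after 2 h at room temperature. Detection used anti-Tag1 Eu cryptate plus anti-Tag2 XL665 antibodies. Tagged PD-L1 and PD-1 proteins were pre-mixed with compound across twelve […] 1:2 dilutions starting at 200 nM.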

Chain of PD-1/PD-L1 (Q9NZQ7 19-238 limits assumed): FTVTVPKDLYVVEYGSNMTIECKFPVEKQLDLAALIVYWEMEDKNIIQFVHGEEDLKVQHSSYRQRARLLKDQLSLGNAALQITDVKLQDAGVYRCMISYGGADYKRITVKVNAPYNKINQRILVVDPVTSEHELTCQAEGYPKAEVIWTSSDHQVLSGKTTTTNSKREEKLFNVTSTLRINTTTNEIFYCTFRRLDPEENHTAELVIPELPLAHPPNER

Row | pIC50 | SMILES
1 | > 8.00 | Cc1c(NC(=O)c2cc3n(n2)CCCC3N2CC[C@@H](C(=O)O)C2)cccc1-c1cccc(Nc2nccc3cc(CN4CC[C@@H](O)C4)cnc23)c1Cl (stereo partly drawn) [Compound 42, (3R)-1-(2-((2'-chloro-3'-((3-(((R)-3-hydroxypyrrolidin-1-yl)methyl)-1,7-naphthyridin-8-yl)amino)-2-methyl-[1,1'-biphenyl]-3-yl)carbamoyl)-4,5,6,7-tetrahydropyrazolo[1,5-a]pyridin-4-yl)pyrrolidine-3-carboxylic acid]
2 | 7.00 to 8.00 | Cc1c(NC(=O)c2cc3n(n2)CCCC3N2CCC(C(=O)O)CC2)cccc1-c1cccc(Nc2nccc3cc(CN4CC[C@@H](O)C4)cnc23)c1Cl (stereo partly drawn) [Compound 44, 1-(2-((2'-chloro-3'-((3-(((R)-3-hydroxypyrrolidin-1-yl)methyl)-1,7-naphthyridin-8-yl)amino)-2-methyl-[1,1'-biphenyl]-3-yl)carbamoyl)-4,5,6,7-tetrahydropyrazolo[1,5-a]pyridin-4-yl)piperidine-4-carboxylic acid]
3 | > 8.00 | Cc1c(NC(=O)c2cc3n(n2)CCCC3O)cccc1-c1cccc(NC(=O)c2nc3c(n2C)CCN(CCC24CCC(C(=O)O)(CC2)C4)C3)c1C (centres unmarked) [Compound 45, 4-(2-(2-((3'-(4-hydroxy-4,5,6,7-tetrahydropyrazolo[1,5-a]pyridine-2-carboxamido)-2,2'-dimethyl-[1,1'-biphenyl]-3-yl)carbamoyl)-1-methyl-6,7-dihydro-1H-imidazo[4,5-c]pyridin-5(4H)-yl)ethyl)bicyclo[2.2.1]heptane-1-carboxylic acid]
4 | > 8.00 | CC(=O)NCCNC1CCCn2nc(C(=O)Nc3cccc(-c4cccc(NC(=O)c5nc6c(n5C)CCN(CCC57CCC(C(=O)O)(CC5)C7)C6)c4C)c3C)cc21 (centres unmarked) [Compound 46, 4-(2-(2-((3'-(4-((2-acetamidoethyl)amino)-4,5,6,7-tetrahydropyrazolo[1,5-a]pyridine-2-carboxamido)-2,2'-dimethyl-[1,1'-biphenyl]-3-yl)carbamoyl)-1-methyl-6,7-dihydro-1H-imidazo[4,5-c]pyridin-5(4H)-yl)ethyl)bicyclo[2.2.1]heptane-1-carboxylic acid]
5 | > 8.00 | Cc1c(NC(=O)c2cc3n(n2)CCCC3N2CC[C@@H](O)C2)cccc1-c1cccc(NC(=O)c2nc3c(n2C)CCN(CCC24CCC(C(=O)O)(CC2)C4)C3)c1C (stereo partly drawn) [Compound 47, 4-(2-(2-((3'-(4-((R)-3-hydroxypyrrolidin-1-yl)-4,5,6,7-tetrahydropyrazolo[1,5-a]pyridine-2-carboxamido)-2,2'-dimethyl-[1,1'-biphenyl]-3-yl)carbamoyl)-1-methyl-6,7-dihydro-1H-imidazo[4,5-c]pyridin-5(4H)-yl)ethyl)bicyclo[2.2.1]heptane-1-carboxylic acid]
6 | > 8.00 | Cc1c(NC(=O)c2cc3n(n2)CCCC3NCCO)cccc1-c1cccc(NC(=O)c2nc3c(n2C)CCN(CCC24CCC(C(=O)O)(CC2)C4)C3)c1C (centres unmarked) [Compound 48, 4-(2-(2-((3'-(4-((2-hydroxyethyl)amino)-4,5,6,7-tetrahydropyrazolo[1,5-a]pyridine-2-carboxamido)-2,2'-dimethyl-[1,1'-biphenyl]-3-yl)carbamoyl)-1-methyl-6,7-dihydro-1H-imidazo[4,5-c]pyridin-5(4H)-yl)ethyl)bicyclo[2.2.1]heptane-1-carboxylic acid]
7 | > 8.00 | Cc1c(NC(=O)c2cc3n(n2)CCCC3NC[C@@H]2CCC(=O)N2)cccc1-c1cccc(NC(=O)c2nc3c(n2C)CCN(CCC24CCC(C(=O)O)(CC2)C4)C3)c1C (stereo partly drawn) [Compound 49, 4-(2-(2-((2,2'-dimethyl-3'-(4-((((S)-5-oxopyrrolidin-2-yl)methyl)amino)-4,5,6,7-tetrahydropyrazolo[1,5-a]pyridine-2-carboxamido)-[1,1'-biphenyl]-3-yl)carbamoyl)-1-methyl-6,7-dihydro-1H-imidazo[4,5-c]pyridin-5(4H)-yl)ethyl)bicyclo[2.2.1]heptane-1-carboxylic acid]
8 | > 8.00 | Cc1c(NC(=O)c2cc3n(n2)CCCC3NCC(=O)O)cccc1-c1cccc(NC(=O)c2nc3c(n2C)CCN(CCC24CCC(C(=O)O)(CC2)C4)C3)c1C (centres unmarked) [Compound 50, 4-(2-(2-((3'-(4-((carboxymethyl)amino)-4,5,6,7-tetrahydropyrazolo[1,5-a]pyridine-2-carboxamido)-2,2'-dimethyl-[1,1'-biphenyl]-3-yl)carbamoyl)-1-methyl-6,7-dihydro-1H-imidazo[4,5-c]pyridin-5(4H)-yl)ethyl)bicyclo[2.2.1]heptane-1-carboxylic acid]
9 | > 8.00 | Cc1c(NC(=O)c2cc3n(n2)CCCC3NC(C)(C)C(=O)O)cccc1-c1cccc(NC(=O)c2nc3c(n2C)CCN(CCC24CCC(C(=O)O)(CC2)C4)C3)c1C (centres unmarked) [Compound 51, 4-(2-(2-((3'-(4-((2-carboxypropan-2-yl)amino)-4,5,6,7-tetrahydropyrazolo[1,5-a]pyridine-2-carboxamido)-2,2'-dimethyl-[1,1'-biphenyl]-3-yl)carbamoyl)-1-methyl-6,7-dihydro-1H-imidazo[4,5-c]pyridin-5(4H)-yl)ethyl)bicyclo[2.2.1]heptane-1-carboxylic acid]
10 | > 8.00 | CC(=O)NCCNC1CCCn2nc(C(=O)Nc3cccc(-c4cccc(NC(=O)c5nc6c(n5C)CCN(CCC57CCC(C(=O)O)(CC5)C7)C6)c4Cl)c3Cl)cc21 (centres unmarked) [Compound 52, 4-(2-(2-((3'-(4-((2-acetamidoethyl)amino)-4,5,6,7-tetrahydropyrazolo[1,5-a]pyridine-2-carboxamido)-2,2'-dichloro-[1,1'-biphenyl]-3-yl)carbamoyl)-1-methyl-6,7-dihydro-1H-imidazo[4,5-c]pyridin-5(4H)-yl)ethyl)bicyclo[2.2.1]heptane-1-carboxylic acid]
11 | > 8.00 | Cn1c(C(=O)Nc2cccc(-c3cccc(NC(=O)c4cc5n(n4)CCCC5NCCO)c3Cl)c2Cl)nc2c1CCN(CCC13CCC(C(=O)O)(CC1)C3)C2 (centres unmarked) [Compound 53, 4-(2-(2-((2,2'-dichloro-3'-(4-((2-hydroxyethyl)amino)-4,5,6,7-tetrahydropyrazolo[1,5-a]pyridine-2-carboxamido)-[1,1'-biphenyl]-3-yl)carbamoyl)-1-methyl-6,7-dihydro-1H-imidazo[4,5-c]pyridin-5(4H)-yl)ethyl)bicyclo[2.2.1]heptane-1-carboxylic acid]
12 | 7.00 to 8.00 | Cn1c(C(=O)Nc2cccc(-c3cccc(NC(=O)c4cc5n(n4)CCCC5NC[C@@H]4CCC(=O)N4)c3Cl)c2Cl)nc2c1CCN(CCC13CCC(C(=O)O)(CC1)C3)C2 (stereo partly drawn) [Compound 54, 4-(2-(2-((2,2'-dichloro-3'-(4-((((S)-5-oxopyrrolidin-2-yl)methyl)amino)-4,5,6,7-tetrahydropyrazolo[1,5-a]pyridine-2-carboxamido)-[1,1'-biphenyl]-3-yl)carbamoyl)-1-methyl-6,7-dihydro-1H-imidazo[4,5-c]pyridin-5(4H)-yl)ethyl)bicyclo[2.2.1]heptane-1-carboxylic acid]
13 | > 8.00 | Cn1c(C(=O)Nc2cccc(-c3cccc(NC(=O)c4cc5n(n4)CCCC5NCC(=O)O)c3Cl)c2Cl)nc2c1CCN(CCC13CCC(C(=O)O)(CC1)C3)C2 (centres unmarked) [Compound 56, 4-(2-(2-((3'-(4-((carboxymethyl)amino)-4,5,6,7-tetrahydropyrazolo[1,5-a]pyridine-2-carboxamido)-2,2'-dichloro-[1,1'-biphenyl]-3-yl)carbamoyl)-1-methyl-6,7-dihydro-1H-imidazo[4,5-c]pyridin-5(4H)-yl)ethyl)bicyclo[2.2.1]heptane-1-carboxylic acid]
14 | 7.00 to 8.00 | Cn1c(C(=O)Nc2cccc(-c3cccc(NC(=O)c4cc5n(n4)CCCC5N4CCC(O)CC4)c3Cl)c2Cl)nc2c1CCN(CCC13CCC(C(=O)O)(CC1)C3)C2 (centres unmarked) [Compound 58, 4-(2-(2-((2,2'-dichloro-3'-(4-(4-hydroxypiperidin-1-yl)-4,5,6,7-tetrahydropyrazolo[1,5-a]pyridine-2-carboxamido)-[1,1'-biphenyl]-3-yl)carbamoyl)-1-methyl-6,7-dihydro-1H-imidazo[4,5-c]pyridin-5(4H)-yl)ethyl)bicyclo[2.2.1]heptane-1-carboxylic acid]
15 | > 8.00 | Cn1c(C(=O)Nc2cccc(-c3cccc(NC(=O)c4cc5n(n4)CCCC5N4CCC(C(=O)O)CC4)c3Cl)c2Cl)nc2c1CCN(CCC13CCC(C(=O)O)(CC1)C3)C2 (centres unmarked) [Compound 59, 1-(2-((3'-(5-(2-(4-carboxybicyclo[2.2.1]heptan-1-yl)ethyl)-1-methyl-4,5,6,7-tetrahydro-1H-imidazo[4,5-c]pyridine-2-carboxamido)-2,2'-dichloro-[1,1'-biphenyl]-3-yl)carbamoyl)-4,5,6,7-tetrahydropyrazolo[1,5-a]pyridin-4-yl)piperidine-4-carboxylic acid]
16 | > 8.00 | Cn1c(C(=O)Nc2cccc(-c3cccc(NC(=O)c4cc5n(n4)CCCC5NC(C)(C)C(=O)O)c3Cl)c2Cl)nc2c1CCN(CCC13CCC(C(=O)O)(CC1)C3)C2 (centres unmarked) [Compound 60, 4-(2-(2-((3'-(4-((2-carboxypropan-2-yl)amino)-4,5,6,7-tetrahydropyrazolo[1,5-a]pyridine-2-carboxamido)-2,2'-dichloro-[1,1'-biphenyl]-3-yl)carbamoyl)-1-methyl-6,7-dihydro-1H-imidazo[4,5-c]pyridin-5(4H)-yl)ethyl)bicyclo[2.2.1]heptane-1-carboxylic acid]

Row | SMILES | pIC50
17 | Cn1c(C(=O)Nc2cccc(-c3cccc(NC(=O)c4cc5n(n4)CCCC5N4CC[C@@H](C(=O)O)C4)c3Cl)c2Cl)nc2c1CCN(CCC13CCC(C(=O)O)(CC1)C3)C2 (stereo partly drawn) [Compound 57, (3R)-1-(2-((3'-(5-(2-(4-carboxybicyclo[2.2.1]heptan-1-yl)ethyl)-1-methyl-4,5,6,7-tetrahydro-1H-imidazo[4,5-c]pyridine-2-carboxamido)-2,2'-dichloro-[1,1'-biphenyl]-3-yl)carbamoyl)-4,5,6,7-tetrahydropyrazolo[1,5-a]pyridin-4-yl)pyrrolidine-3-carboxylic acid] | > 8.00
